Laboratory results published in patent US20040003424A1, “Transgenic cardiomyocytes with controlled proliferation and differentiation” (Board of Regents, The University of Texas System, priority 2002, published 2004).
No end group written: not given here.

Legend:
Assay type in all cases: cell-based, mouse
NkL-TAg cells = experiment: Induction of differentiation of NkL-TAg cells, sarcomeric α-actinin immunocytochemistry; details: for sarcomere formation as assessed by α-actinin immunocytochemistry: NkL-TAg cells prior to depletion of TAg; for induction of sarcomere formation: NkL-TAg cells after removal of TAg, in differentiation medium (5% horse serum, insulin, transferrin, selenium)
Description: (§1) Cell Culture. Cells were isolated from sub-endocardial tumor-like structures in the hearts of transgenic mice as previously described with some modifications (Paradis et al, 1996). Briefly, dissected tissues were minced and dissociated using an enzyme mix containing 0.2% […] (Worthington) and 0.6 mg/ml of pancreatin (Sigma). Cardiac cells derived from Nk-TAg and NkL-TAg mice were maintained in DMEM/F12 media supplemented with 100 IU/ml penicillin, 100 μg/ml streptomycin, 2 mM Lglutamine, and 10% fetal bovine serum (FBS) on plates coated with […] fibronectin and 0.1% 2 gelatin. Cloning cylinders were used to harvest cell clones. Cell growth curves were generated by plating 1.5×10^5 or 2×10^5 cells (as indicated) in growth medium onto 100 mm plates and counting total cell number every 24 hours for 5 days. Differentiation medium contains DMEM/F12 supplemented with 100 IU/ml penicillin, 100 μg/ml streptomycin, 2 mM L-glutamine, 5% heat inactivated horse serum, […], […] and 6.7 ng/ml sodium selenite.
Histochemical Analysis. Heart tissue was fixed in 10% phosphate-buffered formalin and stained with hematoxylin-eosin. Nk-TAg and NkL-TAg cells were cultured on coverslips and fixed for 10 minutes with either −20° C. methanol or 4% paraformaldehyde for immunohistochemistry. Blocking was performed by incubating fixed cells with 1.5% bovine serum albumin and 10% normal goat serum in PBS for 20 minutes. […] Secondary antibodies conjugated to either FITC or Texas Red (1:200, Vector Labs) were diluted in PBS and incubated for 30 minutes at room temperature. In some cases, nuclei were co-stained with DAPI (10 mg/ml) for 1 minute. Coverslips were mounted with Vectashield (Vector Laboratories) and fluorescence or confocal images were captured using Leica DMRXE or Zeiss 3.95 microscopes, respectively.
Viral Infection. Cells were infected with recombinant adenoviruses (Ad) at a multiplicity of infection (MOI) of 100 for 3 to 12 hrs. The medium was replaced with growth medium, and NkL-TAg cells were cultured for the indicated times before analyses. Recombinant adenoviruses were obtained from the following sources: Ad-Cre recombinase (Ad-Cre) was provided by Dr. Frank Graham (McMaster University) (Anton and Graham, 1995); GATA4 (Ad-GATA4), Nkx2.5 (Ad-Nkx2.5), MEK6 (Ad-MEK6), and GFP (Ad-GFP) were generated using the “Easy-Track” system as described (He et al., 1998); antisense HDAC4 and HDAC5 (Ad-HDAC4 or 5), expressing coding regions of HDAC genes in reverse orientation, were provided by Chun Zhang; MEF2C (Ad-MEF2C) was provided by Rebekka Nicol (HDAC 4/5 and MEF2c viruses were generated using pAC-CMV vector); constitutively active calcineurin (Ad-CnA), IGF-I receptor (Ad-IGFI), constitutively active CaMKI (Ad-CaMKI), β-galactosidase (Ad-LacZ) were generated by Dr. Robert Gerard (UT Southwestern) and were constructed using an in vitro Cre-lox recombination system (Aoki et al., 1999; Ng et al. 1999).

Nk-TAg cells [1] = experiment: α-actinin immunohistochemistry and sarcomere assembly in Nk-TAg cells; details: for assembly of sarcomeres: hypertrophic agents added (20 nM ET-1, 100 mM [sic] PE, 1 mM [sic] angiotensin II)
Description: Histochemical Analysis. Heart tissue was fixed in 10% phosphate-buffered formalin and stained with hematoxylin-eosin. Nk-TAg and NkL-TAg cells were cultured on coverslips and fixed for 10 minutes with either −20° C. methanol or 4% paraformaldehyde for immunohistochemistry. Blocking was performed by incubating fixed cells with 1.5% bovine serum albumin and 10% normal goat serum in PBS for 20 minutes. Primary antibodies were incubated for 30-60 minutes in 1.5% bovine serum albumin in PBS as follows: monoclonal anti-myosin (smooth) (1:100, Sigma), polyclonal antimyosin (skeletal) (1:100, Sigma), monoclonal anti-α-smooth muscle actin (1:100, Sigma), monoclonal anti-skeletal myosin (slow) (1:100, Sigma), polyclonal anti-connexin 43 (1:100, Sigma), monoclonal anti-α-sarcomeric actin clone 5C5 (1:100, Sigma), monoclonal anti-desmin (1:100, Sigma), monoclonal anti-calponin (1:100, Sigma), monoclonal anti-α-actinin (sarcomeric) clone EA-53 (1:200, Sigma), monoclonal anti-SV40 T antigen (1:100, Santa Cruz). Secondary antibodies conjugated to either FITC or Texas Red (1:200, Vector Labs) were diluted in PBS and incubated for 30 minutes at room temperature. In some cases, nuclei were co-stained with DAPI (10 mg/ml) for 1 minute. Coverslips were mounted with Vectashield (Vector Laboratories) and fluorescence or confocal images were captured using Leica DMRXE or Zeiss 3.95 microscopes, respectively.
Drug treatment. Drugs were added into cell culture media as indicated at the following concentrations: 100 mM phenylephrine (PE), 10 mM norepinephrine (NE), 10 ng/ml recombinant human transforming growth factor-β1 (TGFβ1) (R&D Systems), 1 mM dynorphin-β (Peninsula Laboratories), 1 mM trans- or cis-retinoic acid (Sigma), 15 ng/ml bone morphogenetic protein (BMP)-2/4 (Genetics Institute, Cambridge, Mass.), 1 mM angiotensin II (R&D Systems), 20 nM endothelin-1 (ET-1) (R&D Systems), 100 ng/ml insulin-like growth factor I (IGF-I) (Roche), 5-azacytidine (Sigma), and 10 mg/ml mitomycin C (Sigma).

Nk-TAg cells [2] = experiment: Proliferation of Nk-TAg cardiac cell lines; details: drug added to the growth medium; mitomycin C 10 mg/ml as printed
Description: as §1
Drug treatment. […]

Compound | sarcomere formation as assessed by α-actinin immunocytochemistry (NkL-TAg cells) | further results
Nc1ncn([C@@H]2O[C@H](CO)[C@@H](O)[C@H]2O)c(=O)n1 [5-azacytidine] | no effect | 
NC[C@H](O)c1ccc(O)c(O)c1 [NE, norepinephrine] | no effect | induction of sarcomere formation (NkL-TAg cells): further induction of sarcomere formation in some cells
CNC[C@H](O)c1cccc(O)c1 [PE, phenylephrine] | no effect | assembly of sarcomeres (Nk-TAg cells [1]): did not further induce the assembly of sarcomeres; induction of sarcomere formation (NkL-TAg cells): further induction of sarcomere formation in some cells
Cn1c(=O)c2c(ncn2C)n(C)c1=O [caffeine] | no effect | 
CC1=C(/C=C/C(C)=C/C=C/C(C)=C\C(=O)O)C(C)(C)CCC1 [cis-retinoic acid] | no effect | 
C[C@H](CCC(=O)O)C[C@H](C)C[C@H](C)C(=O)/C=C(\O)[C@H](C)C[C@H](C)C/C=C/[C@@H](C)[C@@H](O)[C@@H](C)[C@@H](O)C[C@@H]1CC[C@@](C)([C@H]2CC[C@@](C)([C@@H](C)O)O2)O1 [ionomycin] | no effect | 
CO[C@@]12[C@H](COC(N)=O)C3=C(C(=O)C(C)=C(N)C3=O)N1C[C@@H]1N[C@@H]12 [mitomycin C] |  | proliferation of the Nk-TAg cells (Nk-TAg cells [2]): abated proliferation; expression of α-actinin (Nk-TAg cells [1]; immunohistochemistry, in the cytoplasm as unassembled Z-lines, mitomycin C 10 mg/ml as printed): enhanced expression of α-actinin
[Cl-].[K+] [potassium chloride] | no effect | 
CC1=C(/C=C/C(C)=C/C=C/C(C)=C/C(=O)O)C(C)(C)CCC1 [trans-retinoic acid] | no effect | 
IGF-I: insulin-like growth factor I (Roche) | no effect | 
TGFb1: recombinant human transforming growth factor-β1 (R&D Systems) | no effect | 
angiotensin II (DRVYIHPF; Angiotensin-2; UniProt P01019 25-32, looked up) |  | assembly of sarcomeres (Nk-TAg cells [1]): did not further induce the assembly of sarcomeres
bFGF: basic fibroblast growth factor | no effect | 
dynorphin-β | no effect | 
endothelin-1 (CSCSSLMDKECVYFCHLDIIW; ends and bridges not checked; cysteine pairing not given here; UniProt P05305 53-73, looked up) [ET-1] |  | assembly of sarcomeres (Nk-TAg cells [1]): did not further induce the assembly of sarcomeres
